Laboratory results: PubChem BioAssay (NCI)
Several values for one entry are separate records, joined by “and”; a condition that tells them apart may be missing. Identical values can stand only once.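 A five-concentration, 48-hour dose response in 96-well plates underlies each endpoint, interpolated linearly between surrounding concentrations. GI50 = concentration required for 50% inhibition of growth. At the TGI there is no net growth.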

Tests used:
Assay in all cases: DTP human tumour cell line panel, 48 h
786-0 renal = tested on: 786-0 renal
A498 renal = tested on: A498 renal
A549 NSCLC = tested on: A549 NSCLC
ACHN renal = tested on: ACHN renal
BT-549 breast = tested on: BT-549 breast
CAKI-1 renal = tested on: CAKI-1 renal
CCRF-CEM leukemia = tested on: CCRF-CEM leukemia
COLO 205 colon = tested on: COLO 205 colon
DU-145 prostate = tested on: DU-145 prostate
EKVX NSCLC = tested on: EKVX NSCLC
HCC-2998 colon = tested on: HCC-2998 colon
HCT-116 colon = tested on: HCT-116 colon
HCT-15 colon = tested on: HCT-15 colon
HL-60(TB) leukemia = tested on: HL-60(TB) leukemia
HOP-62 NSCLC = tested on: HOP-62 NSCLC
HOP-92 NSCLC = tested on: HOP-92 NSCLC
HS 578T breast = tested on: HS 578T breast
HT29 colon = tested on: HT29 colon
IGROV1 ovarian = tested on: IGROV1 ovarian
K-562 leukemia = tested on: K-562 leukemia
KM12 colon = tested on: KM12 colon
LOX IMVI melanoma = tested on: LOX IMVI melanoma
M14 melanoma = tested on: M14 melanoma
MALME-3M melanoma = tested on: MALME-3M melanoma
MCF7 breast = tested on: MCF7 breast
MDA-MB-231 breast = tested on: MDA-MB-231 breast
MDA-MB-435 = tested on: MDA-MB-435
MOLT-4 leukemia = tested on: MOLT-4 leukemia
NCI-H226 lung = tested on: NCI-H226 lung
NCI-H23 lung = tested on: NCI-H23 lung
NCI-H460 lung = tested on: NCI-H460 lung
NCI-H522 lung = tested on: NCI-H522 lung
NCI/ADR-RES ovarian = tested on: NCI/ADR-RES ovarian
OVCAR-3 ovarian = tested on: OVCAR-3 ovarian
OVCAR-4 ovarian = tested on: OVCAR-4 ovarian
OVCAR-5 ovarian = tested on: OVCAR-5 ovarian
OVCAR-8 ovarian = tested on: OVCAR-8 ovarian
PC-3 prostate = tested on: PC-3 prostate
RPMI-8226 leukemia = tested on: RPMI-8226 leukemia
RXF 393 renal = tested on: RXF 393 renal
SF-268 CNS = tested on: SF-268 CNS
SF-295 CNS = tested on: SF-295 CNS
SF-539 CNS = tested on: SF-539 CNS
SK-MEL-2 melanoma = tested on: SK-MEL-2 melanoma
SK-MEL-28 melanoma = tested on: SK-MEL-28 melanoma
SK-MEL-5 melanoma = tested on: SK-MEL-5 melanoma
SK-OV-3 ovarian = tested on: SK-OV-3 ovarian
SN12C renal = tested on: SN12C renal
SNB-19 CNS = tested on: SNB-19 CNS
SNB-75 CNS = tested on: SNB-75 CNS
SR leukemia = tested on: SR leukemia
SW-620 colon = tested on: SW-620 colon
T-47D breast = tested on: T-47D breast
TK-10 renal = tested on: TK-10 renal
U251 CNS = tested on: U251 CNS
UACC-257 melanoma = tested on: UACC-257 melanoma
UACC-62 melanoma = tested on: UACC-62 melanoma
UO-31 renal = tested on: UO-31 renal

## CNc1ccc2nc3ccc(=[N+](C)C)cc-3sc2c1
786-0 renal
  GI50: 3.84 µM and 1.27 µM
  TGI: 17.6 µM and 16 µM
A498 renal
  GI50: 2.98 µM and 6.49 µM
  TGI: 25.4 µM and 28.2 µM
A549 NSCLC
  GI50: 0.417 µM and 0.338 µM
  TGI: 12.1 µM and 5.21 µM
ACHN renal
  GI50: 0.815 µM and 1.02 µM
  TGI: 10.6 µM and 4.23 µM
BT-549 breast
  GI50: 4.87 µM and 5.73 µM
  TGI: 20.7 µM and 22.6 µM
CAKI-1 renal
  GI50: 1.28 µM and 1.4 µM
  TGI: 9.17 µM and 6.02 µM
CCRF-CEM leukemia
  GI50: 0.432 µM and 0.489 µM
  TGI: 17 µM and > 100 µM
COLO 205 colon
  GI50: 0.626 µM and 0.365 µM
  TGI: 3.03 µM and 1.44 µM
DU-145 prostate
  GI50: 3.6 µM and 2.76 µM
  TGI: 16.1 µM and 11.9 µM
EKVX NSCLC
  GI50: 4.63 µM and 0.518 µM
  TGI: 23.4 µM and 14.5 µM
HCC-2998 colon
  GI50: 2.84 µM and 1.12 µM
  TGI: 15.9 µM and 18.6 µM
HCT-116 colon
  GI50: 0.304 µM and 0.246 µM
  TGI: 8.7 µM and 1.47 µM
HCT-15 colon
  GI50: 1.57 µM and 0.424 µM
  TGI: 18.2 µM and 16.5 µM
HL-60(TB) leukemia
  GI50: 0.236 µM and 0.343 µM
  TGI: 1.41 µM and 3.39 µM
HOP-62 NSCLC
  GI50: 2.54 µM and 0.867 µM
  TGI: 15.7 µM and 7.92 µM
HOP-92 NSCLC
  TGI: 29.8 µM and 5.06 µM
HS 578T breast
  GI50: 4.68 µM and 1.98 µM
HT29 colon
  GI50: 2.92 µM and 3.06 µM
  TGI: 12.2 µM and 12.5 µM
IGROV1 ovarian
  GI50: 2.36 µM and 1.28 µM
  TGI: 10.5 µM and 4.06 µM
K-562 leukemia
  GI50: 0.513 µM and 0.756 µM
  TGI: 14.1 µM and 47.4 µM
KM12 colon
  GI50: 1.15 µM and 0.651 µM
  TGI: 17.6 µM and 11.6 µM
LOX IMVI melanoma
  GI50: 0.443 µM and 0.368 µM
  TGI: 4.47 µM and 2.15 µM
M14 melanoma
  GI50: 1.2 µM and 0.347 µM
  TGI: 12 µM and 1.5 µM
MALME-3M melanoma
  GI50: 0.335 µM and 0.482 µM
  TGI: 2.36 µM and 1.97 µM
MCF7 breast
  GI50: 0.801 µM and 0.284 µM
  TGI: 6.84 µM and 3.62 µM
MDA-MB-231 breast
  GI50: 0.426 µM and 0.345 µM
  TGI: 5.59 µM and 3.63 µM
MDA-MB-435
  GI50: 0.547 µM and 0.785 µM
  TGI: 2.33 µM and 2.85 µM
MOLT-4 leukemia
  GI50: 0.637 µM and 0.667 µM
  TGI: 12.1 µM and 9.36 µM
NCI-H226 lung
  GI50: 2.31 µM and 2.53 µM
  TGI: 10.8 µM and 12.4 µM
NCI-H23 lung
  GI50: 0.817 µM and 0.323 µM
  TGI: 7.91 µM and 2.75 µM
NCI-H460 lung
  GI50: 2.32 µM and 0.879 µM
  TGI: 18.5 µM and 11.5 µM
NCI-H522 lung
  GI50: 0.291 µM and 0.465 µM
  TGI: 1.33 µM and 3.79 µM
NCI/ADR-RES ovarian
  GI50: 0.389 µM and 0.298 µM
  TGI: 9.17 µM and 7.58 µM
OVCAR-3 ovarian
  GI50: 0.408 µM and 0.205 µM
OVCAR-4 ovarian
  GI50: 0.398 µM and 0.299 µM
  TGI: 1.74 µM and 1.9 µM
OVCAR-5 ovarian
  GI50: 2.85 µM and 0.514 µM
  TGI: 6.86 µM and 4.31 µM
OVCAR-8 ovarian
  GI50: 0.298 µM and 0.278 µM
  TGI: 1.79 µM and 1.55 µM
PC-3 prostate
  GI50: 0.41 µM and 0.203 µM
  TGI: 11.6 µM and 2.87 µM
RPMI-8226 leukemia
  GI50: 0.287 µM and 0.8 µM
  TGI: 14.6 µM and 28 µM
RXF 393 renal
  GI50: 3.53 µM and 5.32 µM
  TGI: 11.4 µM and 14.3 µM
SF-268 CNS
  GI50: 2.28 µM and 0.465 µM
  TGI: 18.7 µM and 8.7 µM
SF-295 CNS
  GI50: 1.35 µM and 0.411 µM
  TGI: 10.3 µM and 3.22 µM
SF-539 CNS
  GI50: 0.383 µM and 0.278 µM
  TGI: 2.65 µM and 1.73 µM
SK-MEL-2 melanoma
  GI50: 1.12 µM and 1.07 µM
  TGI: 3.81 µM and 5.25 µM
SK-MEL-28 melanoma
  GI50: 4.25 µM and 1.55 µM
  TGI: 14.8 µM and 9.27 µM
SK-MEL-5 melanoma
  GI50: 0.212 µM and 0.263 µM
  TGI: 0.99 µM and 0.875 µM
SK-OV-3 ovarian
  GI50: 4.29 µM and 3.81 µM
  TGI: 18.7 µM and 19.1 µM
SN12C renal
  GI50: 1.08 µM and 0.466 µM
  TGI: 3.31 µM and 4.16 µM
SNB-19 CNS
  GI50: 0.747 µM and 0.324 µM
  TGI: 8.83 µM and 6.11 µM
SNB-75 CNS
  GI50: 1.89 µM and 1.34 µM
  TGI: 7.36 µM and 7.14 µM
SR leukemia
  GI50: 0.635 µM and 2.22 µM
  TGI: 12.1 µM and > 100 µM
SW-620 colon
  GI50: 1.63 µM and 0.424 µM
  TGI: 12.5 µM and 10.5 µM
T-47D breast
  GI50: 1.86 µM and 0.489 µM
  TGI: 8.9 µM and 12.5 µM
TK-10 renal
  GI50: 2.3 µM and 3.36 µM
  TGI: 7.69 µM and 14.6 µM
U251 CNS
  GI50: 0.412 µM and 0.267 µM
  TGI: 5.6 µM and 1.68 µM
UACC-257 melanoma
  GI50: 0.962 µM and 0.331 µM
  TGI: 4.52 µM and 1.91 µM
UACC-62 melanoma
  GI50: 0.799 µM and 1.1 µM
  TGI: 2.86 µM and 3.6 µM
UO-31 renal
  GI50: 2.74 µM and 2.2 µM
  TGI: 19 µM and 16.3 µM
